≈ marks a conversion by molar mass, not a printed value.
How the values were obtained:
[1] = tested on: S. aureus ATCC 106414 (VISA); assay: MIC, microdilution method (9.1); format: cell-based, Staphylococcus aureus; details: Staphylococcus aureus, read after 18 h, read-out: MIC
Experimental: (§1) The microdilution method recommended by the Clinical and Laboratory Standard Institute [M07-A8, Vol. 29, No. 2] was used. The activity of indolic compounds was tested against 29 bacterial strains belonging to 17 different species and 12 different genera (Staphylococcus, Streptococcus, Enterococcus, Listeria, Bacillus, Haemophilus, Escherichia, Klebsiella, Enterobacter, Serratia, Pseudomonas, and Acinetobacter). Bacterial inocula were prepared in Mueller Hinton broth (MH2, bioMérieux, Marcy L'Etoile, France), supplemented with 10% sheep blood for fastidious species (i.e., Streptococcus pneumoniae and Haemophilus influenzae). They were dispensed in 96 well microtiter plates (5×10^5 CFU/ml of final inoculum). Indolic compounds were added to the wells as to obtain two-fold serial concentrations (0.50-128 mg/L of final concentrations). Plates were incubated at 37° C. in ambient air, or at 37° C. in 5% CO2 enriched atmosphere for fastidious species. […] Drug-free cultures served as growth controls. Cultures receiving gentamicin, ciprofloxacin or cefotaxime served as positive controls.

[2] = tested on: S. aureus ATCC 25923; assay: MIC, microdilution method (9.1); format: cell-based, Staphylococcus aureus; details: Staphylococcus aureus, ATCC25923, read after 18 h, read-out: MIC
Experimental: as §1

[3] = tested on: S. aureus ATCC 29213; assay: MIC, microdilution method (9.1); format: cell-based, Staphylococcus aureus; details: Staphylococcus aureus, ATCC29213, read after 18 h, read-out: MIC
Experimental: as §1

[4] = tested on: S. aureus ATCC 33592 (MRSA); assay: MIC, microdilution method (9.1); format: cell-based, Staphylococcus aureus; details: Staphylococcus aureus, read after 18 h, read-out: MIC
Experimental: as §1

[5] = tested on: S. aureus ATCC 6538; assay: MIC, microdilution method (9.1); format: cell-based, Staphylococcus aureus; details: Staphylococcus aureus, ATCC6538, read after 18 h, read-out: MIC
Experimental: as §1

[6] = tested on: S. aureus ATCC 9144; assay: MIC, microdilution method (9.1); format: cell-based, Staphylococcus aureus; details: Staphylococcus aureus, ATCC9144, read after 18 h, read-out: MIC
Experimental: as §1

[7] = tested on: S. aureus CIP 103428; assay: MIC, microdilution method (9.1); format: cell-based, Staphylococcus aureus; details: Staphylococcus aureus, CIP103428, read after 18 h, read-out: MIC
Experimental: as §1

[8] = tested on: S. aureus CIP 65.25 (MRSA); assay: MIC, microdilution method (9.1); format: cell-based, Staphylococcus aureus; details: Staphylococcus aureus, read after 18 h, read-out: MIC
Experimental: as §1

[9] = tested on: S. aureus CIP 65.6; assay: MIC, microdilution method (9.1); format: cell-based, Staphylococcus aureus; details: Staphylococcus aureus, CIP65, read after 18 h, read-out: MIC
Experimental: as §1

[10] = tested on: S. aureus SA-1199B; assay: MIC, microdilution method (9.1); format: cell-based, Staphylococcus aureus; details: Staphylococcus aureus, SA1199B, 18 h
Experimental: as §1

[11] = tested on: S. epidermidis ATCC 12228; assay: MIC, microdilution method (9.1); format: cell-based, Staphylococcus epidermidis; details: Staphylococcus epidermidis, ATCC12228, read after 18 h, read-out: MIC
Experimental: as §1

[12] = tested on: S. epidermidis CIP 103627; assay: MIC, microdilution method (9.1); format: cell-based, Staphylococcus epidermidis; details: Staphylococcus epidermidis, CIP103627, read after 18 h, read-out: MIC
Experimental: as §1

[13] = tested on: S. epidermidis CIP 81.55; assay: MIC, microdilution method (9.1); format: cell-based, Staphylococcus epidermidis; details: Staphylococcus epidermidis, CIP81, read after 18 h, read-out: MIC
Experimental: as §1

[14] = tested on: HCT116 (human colon tumor); assay: In vitro cytotoxicity; format: cell-based; details: read-out: % of cellular growth inhibition; for inhibition at 10 µM: HCT-116, 10^−5 M; for inhibition at 1 µM: HCT-116, 10^−6 M
Experimental: (§2) In vitro cytotoxicity was assayed on three cell lines—KB (human mouth carcinoma), MCR5 (human lung fibroblast) and HCT116 (human colon tumor). Results are presented in table IV as % of cellular growth inhibition in presence of 10^−5 M and 10^−6 M of the tested bis-indolic derivatives.

[15] = tested on: KB (human mouth carcinoma); assay: In vitro cytotoxicity; format: cell-based; details: read-out: % of cellular growth inhibition; for inhibition at 10 µM: 10^−5 M; for inhibition at 1 µM: 10^−6 M
Experimental: as §2

[16] = tested on: MRC5 (human lung fibroblast); assay: In vitro cytotoxicity; format: cell-based; details: read-out: % of cellular growth inhibition; for inhibition at 10 µM: 10^−5 M; for inhibition at 1 µM: 10^−6 M
Experimental: as §2

[17] = tested on: HCT116 (human colon tumor); assay: In vitro cytotoxicity; format: cell-based; details: HCT-116, HCT116, from 100 μM to 0.005 μM in DMSO, duplicate
[18] = tested on: S. pneumoniae ATCC 6303; assay: MIC, microdilution method (9.1); format: cell-based, Streptococcus pneumoniae; details: Streptococcus pneumoniae, ATCC6303, 10% sheep blood, 5% CO2, 18 h, read-out: MIC
Experimental: as §1

[19] = tested on: S. agalactiae (group B) ATCC 12400; assay: MIC, microdilution method (9.1); format: cell-based, Streptococcus agalactiae; details: Streptococcus agalactiae, ATCC12400, 18 h, read-out: MIC
Experimental: as §1

[20] = tested on: S. pyogenes (group A) CIP 104226; assay: MIC, microdilution method (9.1); format: cell-based, Streptococcus pyogenes; details: Streptococcus pyogenes, CIP104226, 18 h, read-out: MIC
Experimental: as §1

[21] = tested on: S. mitis CIP 103335; assay: MIC, microdilution method (9.1); format: cell-based, Streptococcus mitis; details: Streptococcus mitis, CIP103335, 18 h, read-out: MIC
Experimental: as §1

[22] = tested on: E. faecium CIP 54.32; assay: MIC, microdilution method (9.1); format: cell-based, Enterococcus faecium; details: Enterococcus faecium, CIP54, 18 h, read-out: MIC
Experimental: as §1

[23] = tested on: E. faecalis ATCC 29212; assay: MIC, microdilution method (9.1); format: cell-based, Enterococcus faecalis; details: Enterococcus faecalis, ATCC29212, 18 h, read-out: MIC
Experimental: as §1

[24] = tested on: Acinetobacter baumanii ATCC 19606; assay: MIC, microdilution method (9.1); format: cell-based; details: Acinetobacter baumannii, ATCC19606, 18 h, read-out: MIC
Experimental: as §1

[25] = tested on: Bacillus subtilis CIP 5262; assay: MIC, microdilution method (9.1); format: cell-based; details: CIP5262, 18 h, read-out: MIC
Experimental: as §1

[26] = tested on: Enterobacter cloacae ATCC13047; assay: MIC, microdilution method (9.1); format: cell-based; details: 18 h
Experimental: as §1

[27] = tested on: Escherichia coli ATCC 25922; assay: MIC, microdilution method (9.1); format: cell-based; details: ATCC25922, 18 h
Experimental: as §1

[28] = tested on: Haemophilus influenzae ATCC 49766; assay: MIC, microdilution method (9.1); format: cell-based; details: ATCC49766; Haemophilus influenzae ATCC 49766; 10% sheep blood, 5% CO2; 18 h; read-out: MIC
Experimental: as §1

[29] = tested on: Klebsiella pneumoniae API ATCC 35657; assay: MIC, microdilution method (9.1); format: cell-based; details: ATCC35657, 18 h, read-out: MIC
Experimental: as §1

[30] = tested on: Listeria innocua CIP 80.11; assay: MIC, microdilution method (9.1); format: cell-based; details: CIP80, 18 h, read-out: MIC
Experimental: as §1

[31] = tested on: Pseudomonas aeruginosa CIP 5933; assay: MIC, microdilution method (9.1); format: cell-based; details: CIP5933, 18 h, read-out: MIC
Experimental: as §1

[32] = tested on: S. pneumoniae ATCC 49619; assay: MIC, microdilution method (9.1); format: cell-based; details: Streptococcus pneumoniae, ATCC49619, 10% sheep blood, 5% CO2, 18 h
Experimental: as §1

[33] = tested on: Serratia marcescens CIP 103551; assay: MIC, microdilution method (9.1); format: cell-based; details: CIP103551, 18 h
Experimental: as §1

| SMILES | MIC [1] [µg/mL] | MIC [2] [µg/mL] | MIC [3] [µg/mL] | MIC [4] [µg/mL] | MIC [5] [µg/mL] | MIC [6] [µg/mL] | MIC [7] [µg/mL] | MIC [8] [µg/mL] | MIC [9] [µg/mL] | MIC [10] [µg/mL] | MIC [11] [µg/mL] | MIC [12] [µg/mL] | MIC [13] [µg/mL] | inhibition at 10 µM [14] [%] | inhibition at 1 µM [14] [%] | inhibition at 10 µM [15] [%] | inhibition at 1 µM [15] [%] | inhibition at 10 µM [16] [%] | inhibition at 1 µM [16] [%] | other results |
| --- | --- | --- | --- | --- | --- | --- | --- | --- | --- | --- | --- | --- | --- | --- | --- | --- | --- | --- | --- | --- |
| CC(C)(C)OC(=O)NCC(NC(=O)c1c[nH]c2ccccc12)c1c[nH]c2ccc(Br)cc12 (stereo not drawn) [Compound 3b, tert-Butyl (2-(5-bromo-1H-indol-3-yl)-2-(1H-indole-3-carboxamido)ethyl)carbamate] | 8 (≈ 16.1 µM) | 8 (≈ 16.1 µM) | 8 (≈ 16.1 µM) | 8 (≈ 16.1 µM) | 8 (≈ 16.1 µM) | 8 (≈ 16.1 µM) | 8 (≈ 16.1 µM) | 8 (≈ 16.1 µM) | 8 (≈ 16.1 µM) | 8 (≈ 16.1 µM) | 8 (≈ 16.1 µM) | 8 (≈ 16.1 µM) | 8 (≈ 16.1 µM) | 30 ± 2 | 0 | 41 ± 6 | 0 | 8 ± 5 | 7 | IC50 ([17]; first value): 15 µM; IC50 ([17]; second value): 11.2 µM |
| CC(C)(C)OC(=O)NCC(NC(=O)c1c[nH]c2ccccc12)c1c[nH]c2cc(Br)ccc12 (stereo not drawn) [Compound 3d, tert-Butyl (2-(6-bromo-1H-indol-3-yl)-2-(1H-indolyl-3-carboxamido)ethyl)carbamate] | 8 (≈ 16.1 µM) | 8 (≈ 16.1 µM) | 8 (≈ 16.1 µM) | 8 (≈ 16.1 µM) | 8 (≈ 16.1 µM) | 8 (≈ 16.1 µM) | 8 (≈ 16.1 µM) | 8 (≈ 16.1 µM) | 8 (≈ 16.1 µM) | 8 (≈ 16.1 µM) | 16 (≈ 32.2 µM) | 16 (≈ 32.2 µM) | 16 (≈ 32.2 µM) | 73 ± 3 | 9 | 67 ± 3 | 0 | 73 ± 6 | 0 | MIC [18]: 64 µg/mL (≈ 129 µM); MIC [19]: 64 µg/mL (≈ 129 µM); MIC [20]: 64 µg/mL (≈ 129 µM); MIC [21]: 64 µg/mL (≈ 129 µM); MIC [22]: 64 µg/mL (≈ 129 µM); MIC [23]: > 128 µg/mL; MIC [24]: > 128 µg/mL; MIC [25]: 64 µg/mL (≈ 129 µM); MIC [26]: > 128 µg/mL; MIC [27]: > 128 µg/mL; MIC [28]: 64 µg/mL (≈ 129 µM); MIC [29]: > 128 µg/mL; MIC [30]: 32 µg/mL (≈ 64.3 µM); MIC [31]: > 128 µg/mL; MIC [32]: 64 µg/mL (≈ 129 µM); MIC [33]: > 128 µg/mL |
| CC(C)(C)OC(=O)NCC(NC(=O)c1c[nH]c2cc(Br)ccc12)c1c[nH]c2ccccc12 (stereo not drawn) [Compound 3e, tert-Butyl (2-(1H-indol-3-yl)-2-(6-bromo-1H-indolyl-3-carboxamido)ethyl)carbamate] | 8 (≈ 16.1 µM) | 16 (≈ 32.2 µM) | 8 (≈ 16.1 µM) | 32 (≈ 64.3 µM) | 8 (≈ 16.1 µM) | 8 (≈ 16.1 µM) | 8 (≈ 16.1 µM) | 8 (≈ 16.1 µM) | 16 (≈ 32.2 µM) | 8 (≈ 16.1 µM) | 8 (≈ 16.1 µM) | 128 (≈ 257 µM) | 8 (≈ 16.1 µM) | 92 ± 1 | 2 | 99 ± 1 | 0 | 92 ± 6 | 0 | – |

From US9676715B2, “Bis-indolic derivatives, a process for preparing the same and their uses as a drug” (UNIVERSITE JOSEPH FOURIER, priority 2011, dated 2017)
